Consider 22 compounds from patent US20250066412A1, “CRYSTAL OF 4’-SUBSTITUTED NUCLEOSIDE, PREPARATION METHOD THEREFOR, COMPOSITION CONTAINING THE SAME, AND USE THEREOF” (HENAN GENUINE BIOTECH CO., LTD., priority 2022, published 2025).

For data set [1] the following is noted: at 110° C., DSC and TGA studies, background; cited from earlier work.
Data set [2] can be described thus: crystal form stability by XRPD after heating, drying or storage. Conditions: for XRPD / crystal form after heating: heated to 120° C.
Data set [3] has as its system HIV. The note with it: cited from earlier work; for inhibitory activities against HIV: literature reports; for EC50: E. Michailidis et al J. Biol. Chem. 2009, read-out: HIV inhibitory activity EC50.
Data set [4] deals with HIV. Conditions: CN109893536 B; read-out: anti-HIV activity EC50; cited from earlier work.
Where [5] appears, read: heated to 160° C. under nitrogen protection.
Setting [6] is: vacuum drying at room temperature for 24 h.
The mark [7] stands for this setting: heated to 130° C. under nitrogen.

Like-named read-outs stand apart in the source and are kept apart here.

For the compound `C#C[C@]1(CO)O[C@@H](n2cnc3c(N)nc(F)nc32)[C@@H](F)[C@@H]1O` [crystal form A], the weight loss in data set [1] is 9.0%.

On to `C#C[C@]1(CO)O[C@@H](n2cnc3c(N)nc(F)nc32)[C@@H](F)[C@@H]1O` [type-XIII crystal], for which the “crystal form in a solvent environment” value in data set [2] (left in a solvent environment at room temperature) is listed as “transformed into the type-XIV crystal”. Moreover, the “crystal form after drying” value in data set [2] (left open and dried at room temperature for about 2 h) is given as “the crystal form was transformed”.

Consider `C#C[C@]1(CO)O[C@@H](n2cnc3c(N)nc(F)nc32)[C@@H](F)[C@@H]1O` [type-XII crystal], for which the “crystal form after drying” value in data set [2] (vacuum dried at room temperature for 10 min) is on record as “transformed into an amorphous crystal”. Also, the weight loss (heated to 120° C.) amounted to 59.6%.

For the compound `C#C[C@]1(CO)O[C@@H](n2cnc3c(N)nc(F)nc32)[C@@H](F)[C@@H]1O` [type-IX crystal], in data set [2] (heated to 95° C. under nitrogen, cooled to room temperature, exposed to air), the “crystallinity after heating (XRPD)” value is on record as “the degree of crystallinity was further decreased”. Further, the “crystal form after heating (XRPD)” value in data set [2] (setting [5]) is listed as “its crystal form had been transformed”. The crystallinity after storage entry in data set [2] (left closed at room temperature for about 3 days) is reported as “a reduced degree of crystallinity”. This compound also showed a weight loss (heated to 160° C.) of 20.3%.

As for `C#C[C@]1(CO)O[C@@H](n2cnc3c(N)nc(F)nc32)[C@@H](F)[C@@H]1O` [type-I crystal], the XRPD after heating entry in data set [2] (heated to 55° C. under nitrogen, cooled to room temperature, exposed to air) is on record as “the diffraction peak intensity of the sample was somewhat reduced”. Besides, the “crystal form after heating (XRPD)” value in data set [2] (heated to 100° C. under nitrogen protection) was “transformed into an amorphous crystal”. Moreover, the weight loss runs as follows: (further heated from 110° C. to 200° C.) 3.5%; (heated to 110° C.) 13.2%.

In the case of `C#C[C@]1(CO)O[C@@H](n2cnc3c(N)nc(F)nc32)[C@@H](F)[C@@H]1O` [type-IV crystal], the XRPD after storage result in data set [2] (dried crystal left closed at room temperature for about 5 days) is “increased relative intensity of the diffraction peaks and increased number of diffraction peaks”. In addition, the “crystal form after heating (XRPD)” value in data set [2] (heated to 141° C. under nitrogen protection) was “transformed into a stable type-III crystal”. Moreover, the XRPD after drying result in data set [2] (vacuum dried at room temperature for 15 min) is recorded as “decreased relative intensity of the diffraction peaks”. Moreover, the weight loss (heated to 120° C.) was 10.6%.

For `C#C[C@]1(CO)O[C@@H](n2cnc3c(N)nc(F)nc32)[C@@H](F)[C@@H]1O` [type-XI crystal], the weight loss (heated to 120° C.) was 19.3%.

Turning to `C#C[C@]1(CO)O[C@@H](n2cnc3c(N)nc(F)nc32)[C@@H](F)[C@@H]1O` [type-XV crystal], the “XRPD / crystal form after heating” value in data set [2] is listed as “the crystal form transformation occurred”. Besides, for the setting “heated to 120° C.”, the weight loss came out at 2.2%.

Regarding `C#C[C@]1(CO)O[C@@H](n2cnc3c(N)nc(F)nc32)[C@@H](F)[C@@H]1O` [type-XVI crystal], the “crystal form after heating (XRPD)” value in data set [2] (heated to 55° C. in a nitrogen atmosphere, held for 2 to 24 h) is given as “the type-XVII crystal was also obtained”. Moreover, in data set [2] (setting [6]), the “crystal form after drying” value is reported as “turned into a monohydrate crystal form”. The “weight loss (dehydration)” value under setting [6] amounted to 14.39%.

On to `C#C[C@]1(CO)O[C@@H](n2cnc3c(N)nc(F)nc32)[C@@H](F)[C@@H]1O` [type-XVII crystal], for which the change on drying entry in data set [2] (dried at 90° C. for 1 to 24 h) is reported as “lost one molecule of water”. The compound further came in with a weight loss (dried at 90° C. for 1 to 24 h) of 5.47%.

Take `C#C[C@]1(CO)O[C@@H](n2cnc3c(N)nc(F)nc32)[C@@H](F)[C@@H]1O` [type-VIII crystal]: the “crystal form after heating (XRPD)” value in data set [2] (setting [5]) is given as “the crystal form had been transformed”. The compound also yielded a weight loss (heated to 160° C.) of 10.6%.

On to `C#C[C@]1(CO)O[C@@H](n2cnc3c(N)nc(F)nc32)[C@@H](F)[C@@H]1O` [type-II crystal], for which the “crystal form after drying” value in data set [2] (vacuum dried at room temperature for half an hour) is listed as “transformed into a type-III crystal”.

As for `C#C[C@]1(CO)O[C@@H](n2cnc3c(N)nc(F)nc32)[C@@H](F)[C@@H]1O` [type-V crystal], the “crystal form after heating (variable-temperature XRPD)” value in data set [2] (further heated to 154° C.) is “transformed into another crystal”; in data set [2] (heated to 90° C. and 130° C. under nitrogen protection), “substantially transformed into an amorphous crystal”. Also, the “crystallinity (variable-temperature XRPD)” value in data set [2] (purged with nitrogen for about 20 min) was “significant decrease in degree of crystallinity”. Moreover, the weight loss is, setting by setting: (further heated from 140° C. to 240° C.) 2.8%; (heated to 140° C.) 15.4%.

Take `C#C[C@]1(CO)O[C@@H](n2cnc3c(N)nc(F)nc32)[C@@H](F)[C@@H]1O` [type-X crystal]: in data set [2] (further heated to 145° C.), the “crystal form after heating (variable-temperature XRPD)” value is “the crystal form was transformed”. In addition, the “XRPD / crystal form after heating” value in data set [2] is listed as “the position of the diffraction peak shifted”. Besides, the XRPD after heating result in data set [2] (setting [7]) is “the diffraction peak intensity was significantly reduced”. Besides, the weight loss is, setting by setting: (further heated from 130° C. to 160° C.) 4.5%; (heated to 130° C.) 7.9%.

Turning to `C#C[C@]1(CO)O[C@@H](n2cnc3c(N)nc(F)nc32)[C@@H](F)[C@@H]1O` [type-III crystal], the “crystal form after heating (variable-temperature XRPD)” value in data set [2] (heated to 150° C. under nitrogen protection) is “the crystal form did not change”. In addition, for the setting “heated to 200° C.”, the weight loss is 1.2%.

On to `C#C[C@]1(CO)O[C@@H](n2cnc3c(N)nc(F)nc32)[C@@H](F)[C@@H]1O` [type-VI crystal], for which the “crystal form after heating (XRPD)” value in data set [2] (setting [5]) is listed as “the crystal form was transformed”. For the same compound, the weight loss (further heated from 70° C. to 130° C.) is reported as 5.9% and the weight loss (heated to 70° C.) is given as 4.9%.

Take `C#C[C@]1(CO)O[C@@H](n2cnc3c(N)nc(F)nc32)[C@@H](F)[C@@H]1O` [type-VII crystal]: the XRPD after heating result in data set [2] (setting [7]) is recorded as “the crystal form was transformed”. The same compound showed a weight loss (heated to 130° C.) of 11.2%.

For `[N-]=[N+]=N[C@]1(CO)O[C@@H](n2ccc(N)nc2=O)[C@@H](F)[C@@H]1O` [compound (II)], the “inhibitory activities against HIV” value with HIV [3] is “significant inhibitory activities”.

The term EC50 denotes the concentration needed to bring the measured effect to its halfway point. Consider `C#C[C@]1(CO)O[C@@H](n2cnc3c(N)nc(F)nc32)C[C@@H]1O` [Compound 1], for which, in the data set on HIV [3], the EC50 was 0.05 nM and the “inhibitory activities against HIV” value was “significant inhibitory activities”. In addition, in the data set with HIV [3] (EFdA versus EdA), the “increase of HIV inhibitory activity by introduction of 2-fluorine” value is given as 2200 times.

As to `C#C[C@]1(CO)O[C@@H](n2cnc3c(N)nc(F)nc32)[C@@H](F)[C@@H]1O` [compound (3), (2R,3R,4S,5R)-5-(6-amino-2-fluoro-9H-purin-9-yl)-2-ethynyl-4-fluoro-2-(hydroxymethyl)tetrahydrofuran-3-ol], the EC50 with HIV [4] is 0.9 nM.

For the compound `C#C[C@]1(CO)O[C@@H](n2cnc3c(N)nc(F)nc32)[C@@H](F)[C@@H]1O` [type-XIV crystal], the “stability of the crystal form (overall finding)” value in data set [2] is “unstable intermediate state”. Also, the “crystal form after removal from the solvent environment” value in data set [2] (room temperature) was “transformed into the type-XIII crystal”.

Consider `C#C[C@]1(CO)O[C@@H](n2cnc3c(N)ncnc32)C[C@@H]1O` [EdA, 4′-ethynyl-2′-deoxyadenosine], for which the EC50 in the data set on HIV [3] is 11 nM.
